Reference: patent publication US11746115B2, “Solid forms of 7-[[(1S)-1-[4-[(1S)-2-cyclopropyl-1-(4-prop-2-enoylpiperazin-1-yl)ethyl]phenyl]ethyl]amino]-1-ethyl-4H-pyrimido[4,5-d][1,3]oxazin-2-one” (Eli Lilly and Company, priority 2021, dated 2023)

Tests used:
[1] = Non-sink dissolution (microcentrifuge assay, pH 2 then FaSSIF pH 6.5); format: physicochemical; details: after FaSSIF pH 6.5 transfer
Protocol: Non-sink dissolution is performed by adding the test composition to a solution of 0.01 N HCl pH 2 (e.g., in a centrifuge tube) and analyzing for 7-[[(1S)-1-[4-[(1S)-2-cyclopropyl-1-(4-prop-2-enoylpiperazin-1-yl)ethyl]phenyl]ethyl]amino]-1-ethyl-4H-pyrimido[4,5-d][1,3]oxazin-2-one solution concentration, by HPLC, at approximately time zero, 20 and 40 minutes. After approximately 40 minutes, a solution of fasted state simulated intestinal fluid (FaSSIF) pH 6.5, with 0.224 wt % bile salts, is added to the pH 2 solution. The 7-[[(1S)-1-[4-[(1S)-2-cyclopropyl-1-(4-prop-2-enoylpiperazin-1-yl)ethyl]phenyl]ethyl]amino]-1-ethyl-4H-pyrimido[4,5-d][1,3]oxazin-2-one concentration is monitored, by HPLC, at approximately 50, 70, 90 and 120 minutes after time zero. At each timepoint the samples are centrifuged at 18,500 g-force for 3 minutes to remove undissolved solids from the sample. For analysis, a supernatant sample (100 μL) is diluted 5× using 1:1 acetonitrile/H2O and analyzed. The non-sink dissolution test is completed at room temperature.

[2] = Preclinical solubility studies of Compound A; format: physicochemical; details: certain preclinical studies

Structure (SMILES)	solution concentration at the 70 minute timepoint at elevated pH as compared to TC1 [1]	solubility, acidic versus neutral environment [2]
C=CC(=O)N1CCN([C@@H](CC2CC2)c2ccc([C@H](C)Nc3ncc4c(n3)N(CC)C(=O)OC4)cc2)CC1 [TC2, 7-[[(1S)-1-[4-[(1S)-2-cyclopropyl-1-(4-prop-2-enoylpiperazin-1-yl)ethyl]phenyl]ethyl]amino]-1-ethyl-4H-pyrimido[4,5-d][1,3]oxazin-2-one, 2,5-dihydroxybenzoic acid (1:2)]	increased solution concentration	
C=CC(=O)N1CCN([C@@H](CC2CC2)c2ccc([C@H](C)Nc3ncc4c(n3)N(CC)C(=O)OC4)cc2)CC1 [TC1, 7-[[(1S)-1-[4-[(1S)-2-cyclopropyl-1-(4-prop-2-enoylpiperazin-1-yl)ethyl]phenyl]ethyl]amino]-1-ethyl-4H-pyrimido[4,5-d][1,3]oxazin-2-one]		more soluble in an acidic environment than a neutral one
